From PMC9501525, “Conjugation of a Cationic Cell-Penetrating Peptide with a Novel Kunitzin-like Trypsin Inhibitor: New Insights for Enhancement of Peptide Bioactivities” (Pharmaceutics, 2022)
Peptide text beside a SMILES is read from it.

System: MRC-5 human pulmonary fibroblast cells
Assay: LDH cytotoxicity assay
Type: cell-based
Details: MRC-5, 24 h, highest test concentration 100 µM; relative to lysis buffer maximum
Experimental: A CyQUANT™ LDH Cytotoxicity Detection Kit (Thermo Fisher Scientific, Waltham, MA, USA) was used to detect the LDH released from human microvascular endothelial cell line (HMEC-1) and human pulmonary fibroblast cell line (MRC-5). Cells were cultured as for the MTT antiproliferation assay described previously. After incubation, the peptide solutions at the same concentrations as in the previous method were added to the cells for further incubation of 24 h. Among these, the positive control group, representing the maximal LDH release, was obtained from the 10 × lysis buffer supplied in the kit. The lysis buffer was added to the control group and co-cultured for 45 min, while deionized water was added to the spontaneous LDH release control. Subsequently, the same volume of sample as the reaction mixture was withdrawn, added into a new 96-well plate, and mixed well. After co-culturing under dark conditions for 30 min, an equal amount of stop solution was added to stop the reaction. Absorbance values of all experimental groups were measured at wavelengths of 490 and 680 nm using the Synergy HT plate reader.

Q: With `CC(C)C[C@H](NC(=O)[C@H](CCCCN)NC(=O)[C@H](C)NC(=O)[C@H](C)NC(=O)CNC(=O)CNC(=O)[C@H](CCCNC(=N)N)NC(=O)[C@H](CCCNC(=N)N)NC(=O)[C@H](CCCNC(=N)N)NC(=O)[C@H](CCC(N)=O)NC(=O)[C@H](CCCNC(=N)N)NC(=O)[C@H](CCCNC(=N)N)NC(=O)[C@H](CCCCN)NC(=O)[C@H](CCCCN)NC(=O)[C@@H](N)CCCNC(=N)N)C(=O)N1CCC[C@H]1C(=O)N[C@@H](Cc1ccccc1)C(=O)N[C@@H](CCCNC(=N)N)C(=O)N[C@H]1CSSC[C@@H](C(=O)O)NC(=O)[C@H](Cc2ccccc2)NC(=O)[C@H](C)NC(=O)[C@H](C)NC(=O)[C@H](Cc2ccccc2)NC1=O` [TAT-F9-KOV2] (HELM PEPTIDE1{R.K.K.R.R.Q.R.R.R.G.G.A.A.K.L.P.F.R.C.F.A.A.F.C}$PEPTIDE1,PEPTIDE1,19:R3-24:R3$$$V2.0) as the compound, how does the LDH release read?
A: Its LDH release is “more than 10%”.
